Experimental findings from patent publication US9138479B2, “Formulations for the treatment of diabetes” (XERIS PHARMACEUTICALS, INC., priority 2011, dated 2015) are described below.

The nature of this data set: Pramlintide solubility in DMSO and DMSO-water co-solvents (visual inspection). The data set is classed as physicochemical. As to conditions: pH memory 2.0; 20 mg/mL in neat DMSO. The procedure: • 3b. […] The resulting solutions are assessed visually for clarity and/or analyzed for light scattering using visible spectroscopy at […], and used in various downstream applications.
Solutions of pramlintide were prepared at a concentration of 2 mg/mL in 10 mM citrate, pH 2.0, or 10 mM citrate, pH 4.0, each with or without 2 mg/mL trehalose. The solutions were dried by centrifugation under vacuum for approximately 3.5 hours at 25-30° C., or lyophilized as described above.

As to `CC[C@H](C)[C@H](NC(=O)[C@@H]1CCCN1C(=O)CNC(=O)[C@H](Cc1ccccc1)NC(=O)[C@H](CC(N)=O)NC(=O)[C@H](CC(N)=O)NC(=O)[C@H](CO)NC(=O)[C@H](CO)NC(=O)[C@H](Cc1c[nH]cn1)NC(=O)[C@@H](NC(=O)[C@H](CC(C)C)NC(=O)[C@H](Cc1ccccc1)NC(=O)[C@H](CC(N)=O)NC(=O)[C@H](C)NC(=O)[C@H](CC(C)C)NC(=O)[C@H](CCCNC(=N)N)NC(=O)[C@H](CCC(N)=O)NC(=O)[C@@H](NC(=O)[C@H](C)NC(=O)[C@@H]1CSSC[C@H](NC(=O)[C@@H](N)CCCCN)C(=O)N[C@@H](CC(N)=O)C(=O)N[C@@H]([C@@H](C)O)C(=O)N[C@@H](C)C(=O)N[C@@H]([C@@H](C)O)C(=O)N1)[C@@H](C)O)C(C)C)C(=O)N[C@@H](CC(C)C)C(=O)N1CCC[C@H]1C(=O)N1CCC[C@H]1C(=O)N[C@H](C(=O)N[C@@H](CC(N)=O)C(=O)N[C@H](C(=O)NCC(=O)N[C@@H](CO)C(=O)N[C@@H](CC(N)=O)C(=O)N[C@H](C(=O)N[C@@H](Cc1ccc(O)cc1)C(N)=O)[C@@H](C)O)C(C)C)[C@@H](C)O` [pramlintide], the “appearance of solution by visual inspection” value was “flowable and completely clear”.
